{"source": "patent US20220095612A1", "about": "“MICRONUTRIENT COMPOSITIONS AND SYSTEMS AND METHODS OF USING SAME” (Nanochem Solutions, Inc., priority 2020, published 2022)", "origin": "cited, not measured here", "data": [{"smiles": "N[C@@H](CC(=O)O)C(=O)O", "note": "[L-aspartic acid]", "values": [{"measurement": "pH at which the alpha carboxyl deprotonates", "setting": "alpha carboxyl group", "value": "about 2.09"}, {"measurement": "pH at which the carboxyl side group deprotonates", "setting": "carboxyl side group", "value": "about 3.86"}]}]}
